Laboratory results: patent US8815877B2, “Serine/threonine kinase inhibitors” (Genentech, Inc., priority 2011, dated 2014)

Assays:
[1] = molecular target: T1, human recombinant GST-PAK1-KD protein (Homo sapiens, UniProt Q13153); experiment: GST-PAK1-KD (Kinase Domain) IC50 biochemical assay (microfluidic mobility shift); details: GST-PAK1-KD inhibition assay
T1 construct: residues #249-545 of human PAK1, UniProtKP/Swiss Q13153; made in house; host or cells: Sf9 insect cells (pAcGP67 baculovirus expression vector)
T1 sequence (Q13153 249-545): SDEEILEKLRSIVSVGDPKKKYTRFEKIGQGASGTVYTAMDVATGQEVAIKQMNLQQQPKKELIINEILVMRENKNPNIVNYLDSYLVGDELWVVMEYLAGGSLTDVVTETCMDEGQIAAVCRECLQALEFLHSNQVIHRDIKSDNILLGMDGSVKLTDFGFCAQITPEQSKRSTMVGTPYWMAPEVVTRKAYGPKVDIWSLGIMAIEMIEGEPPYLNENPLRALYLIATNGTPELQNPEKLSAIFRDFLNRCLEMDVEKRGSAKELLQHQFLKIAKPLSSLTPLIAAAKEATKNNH
Method: GST-PAK1-KD (Kinase Domain) IC50 Biochemical Assay Protocol
Activity of human recombinant GST-PAK1-KD protein was assessed in vitro assay by observing the phosphorylation of a fluorogenic peptide substrate.
The peptide substrate is a consensus sequence based on various PAK1 substrates reported in the scientific literature. […] Incubations were carried out at 22° C. in MatriCal MP101 384-well Metriplates™. […] Following the 30-minute incubation, the assay mixtures were quenched by the addition of 3 μL of 250 mM EDTA, and the substrate and phosphorylated product were separated by capillary electrophoresis and detected using LabChip® Caliper 3000 (Caliper Life Sciences).

[2] = test system: MEK1 phosphorylation at S298; experiment: Cellular PAK IC50 assay: MEK1 (S298) phosphorylation by HTRF in EBC1 cells; format: cell-based; details: Homo sapiens, EBC-1, 2 h treatment, media containing 0.1% FBS
Method: Cellular PAK IC50 Assay Protocol
Group I PAKs (PAK1-3) are activated upon binding to the Rho GTPases, Rac 1 and Cdc42. Activated group I PAKs phosphorylate MEK1 at Serine 298 (S298), one of the two sites in the catalytic domain that is important for stable association between Raf and MEK1 and subsequent MAPK activation. The inhibition of group I PAKs in EBC1 cells is assessed by detecting changes in the level of MEK1 phosphorylation at S298 using homogenous time-resolved fluorescence (HTRF). Inhibitory activity was estimated by treating 2×10^4 EBC1 cells for 2 h with PAK inhibitors in media containing 0.1% FBS. Following inhibitor treatment, cells were lysed with 25 μL of 1× cellular kinase lysis buffer (Cisbio) containing 1× cellular kinase blocking reagent (Cisbio). Cellular lysis was carried out at 4° C. for 2 h with constant shaking before lysate (16 μL) was transferred to white 384-well ProxiPlates™ (Perkin Elmer). Anti-total MEK1 antibody labeled with Europium cryptate donor (1 ng/well) (Cell Signaling Technologies catalog number 2352) and anti-phospho MEK1 (S298) antibody labeled with d2 acceptor (Cell Signaling Technologies catalog number 9128) (10 ng/well) were prepared in 1× detection buffer (CisBio) and added to each well of the assay plate and allowed to incubate at RT overnight. The following day the fluorescence emission from each well was measured in EnVision® (Perkin Elmer) at an excitation of 330 nm and dual emission wavelengths of 615 nm and 665 nm. The signal in each well at 665 nm was multiplied by 10,000 and divided by the signal in the same well at 615 nm to obtain a ratio. Ratio values ([665*10,000]÷615) were plotted as a function of the concentration of compound to determine IC50 values.

SMILES | Ki [1] [µM] | IC50 [2] [µM]
C[C@H](Nc1nccc(Nc2cc(C3CC3)[nH]n2)n1)c1nccc2[nH]ccc12 [Compound I-4, N^2-((S)-1-(1H-pyrrolo[3,2-c]pyridin-4-yl)ethyl)-N^4-(5-cyclopropyl-1H-pyrazol-3-yl)pyrimidine-2,4-diamine] | 0.06 | 0.325
c1cc(Nc2cc(C3CC3)[nH]n2)nc(NCc2cnc3[nH]ccc3c2)n1 [Compound I-6, N^2-((1H-Pyrrolo[2,3-b]pyridin-5-yl)methyl)-N^4-(5-cyclopropyl-1H-pyrazol-3-yl)pyrimidine-2,4-diamine] | 0.072 | 0.709
C[C@H](Nc1nccc(Nc2cc(C3CC3)[nH]n2)n1)c1cc2cc[nH]c2cn1 [Compound I-7, (S)—N^2-(1-(1H-pyrrolo[2,3-c]pyridin-5-yl)ethyl)-N^4-(5-cyclopropyl-1H-pyrazol-3-yl)pyrimidine-2,4-diamine] | 0.005 | 0.0684
CN(Cc1ccc2[nH]ccc2n1)c1nccc(Nc2cc(C3CC3)[nH]n2)n1 [Compound I-10, N^2-((1H-pyrrolo[3,2-b]pyridin-5-yl)methyl)-N^4-(5-cyclopropyl-1H-pyrazol-3-yl)-N^2-methylpyrimidine-2,4-diamine] | 0.067 | 1.1
C[C@H](Nc1nccc(Nc2cc(C3CC3)[nH]n2)n1)c1ccc2[nH]ccc2n1 [Compound I-12, (S)—N^2-(1-(1H-pyrrolo[3,2-b]pyridin-5-yl)ethyl)-N^4-(5-cyclopropyl-1H-pyrazol-3-yl)pyrimidine-2,4-diamine] | 0.016 | 0.0455
C[C@H](Nc1nccc(Nc2cc(C3CC(F)(F)C3)[nH]n2)n1)c1ccc2[nH]ccc2n1 [Compound I-16, (S)—N^2-(1-(1H-pyrrolo[3,2-b]pyridin-5-yl)ethyl)-N^4-(5-(3,3-difluorocyclobutyl)-1H-pyrazol-3-yl)pyrimidine-2,4-diamine] | 0.022 | 0.0726
C[C@@H](c1ccc2[nH]ccc2n1)N(C)c1nccc(Nc2cc(C3CC3)[nH]n2)n1 [Compound I-18, (S)—N^2-(1-(1H-pyrrolo[3,2-b]pyridin-5-yl)ethyl)-N^4-(5-cyclopropyl-1H-pyrazol-3-yl)-N^2-methylpyrimidine-2,4-diamine] | 0.024 | 0.221
C[C@@H](c1ccc2[nH]ccc2n1)N(C)c1nccc(Nc2cc([C@@H]3C[C@@H]3F)[nH]n2)n1 [Compound I-24, N^2-((S)-1-(1H-pyrrolo[3,2-b]pyridin-5-yl)ethyl)-N^4-(5-((1S,2S)-2-fluorocyclopropyl)-1H-pyrazol-3-yl)-N^2-methylpyrimidine-2,4-diamine] | 0.052 | 0.191
C[C@@H](c1ccc2[nH]ccc2n1)N(C)c1nccc(Nc2cc([C@H]3C[C@@H]3F)[nH]n2)n1 [Compound I-28, N^2—((S)-1-(1H-pyrrolo[3,2-b]pyridin-5-yl)ethyl)-N^4-(5-((1R,2S)-2-fluorocyclopropyl)-1H-pyrazol-3-yl)-N^2-methylpyrimidine-2,4-diamine] | 0.008 | 0.0531
c1cc(Nc2cc(C3CC3)[nH]n2)nc(NCc2cncc3[nH]cnc23)n1 [Compound I-33, N^2-((3H-imidazo[4,5-c]pyridin-7-yl)methyl)-N^4-(5-cyclopropyl-1H-pyrazol-3-yl)pyrimidine-2,4-diamine] | 0.494 | –
C[C@H](Nc1nccc(Nc2cc(C3CC3)[nH]n2)n1)c1ncc2[nH]ccc2n1 [Compound I-35, (S)—N^2-(1-(5H-pyrrolo[3,2-d]pyrimidin-2-yl)ethyl)-N^4-(5-cyclopropyl-1H-pyrazol-3-yl)pyrimidine-2,4-diamine] | 0.003 | –
